Test results: patent US7138543B2, “Thiolalkyl benzoic acid derivatives” (Guilford Pharmaceuticals Inc., priority 2001, dated 2006)

Experiments:
STZ-diabetic rats [1] = test: Diabetic neuropathy in STZ model (motor and sensory nerve conduction velocity); format: in vivo
Protocol: In vivo Assay of NAALADase Inhibitors on Diabetic Neuropathy in STZ Model
Motor and sensory nerve conduction velocity was also measured in STZ-diabetic animals after 4, 8 and 12 weeks of treatment (see De Koning et al., supra, for a description of the experimental method). Briefly, stimulating needle electrodes were inserted close to the sciatic and tibial nerves with recording electrodes being placed subcutaneously over the distal foot muscles, in anesthetized rats.

STZ diabetic rats [2] = test: Reversal of diabetic neuropathy in STZ model, delayed dosing: thermal hyperalgesia; format: in vivo
Protocol: (§1) In vivo Assay of NAALADase Inhibitors—Reversal of Diabetic Neuropathy in STZ Model
(§2) General Method for STZ Model—Delayed Dosing
(§3) Rats (200–225 grams) were injected with STZ (70 mg/kg) into the tail vein. Diabetes (>350 mg/dl) was confirmed in all rats, 4 weeks after STZ administration. Rats were left untreated until 35–49 days after STZ. Compound D (1, 3, or 10 mg/kg), Compound E (10 mg/kg), or vehicle were dosed daily p.o. following confirmation of hyperalgesia and/or nerve conduction velocity deficits. In separate experiments, onset of treatment was delayed until 60 to 90 days after STZ administration. Nerve conduction velocity or withdrawal response to thermal stimulation of hind paws was measured at intervals, usually bi-weekly for thermal response and monthly for nerve conduction velocity.
Animals were acclimated to the apparatus for at least 5 min. An infra-red source was placed under below the plantar surface of the rat hind-paw. The intensity of the source was adjusted so that latency for normal rats was about 10 secs. Animals were tested for thermal response latency according to the method of Hargreaves et al (Pain 77–88, 1988). Each animal was tested 8 times (4 each hind limb) and the latency of response recorded automatically to nearest 0.1 sec. An average of the last 4 measurements for each paw was calculated (8 total measurements) and noted for each rat.

STZ diabetic rats [3] = test: Reversal of diabetic neuropathy in STZ model, delayed dosing: nerve conduction velocity; format: in vivo
Protocol: as §1, §2, §3
Nerve Conduction Velocity Measurements
Sensory and motor nerve conduction velocities were evaluated using the method of De Koning and Gispen (Peptides 8: 415–422, 1987). Electrophysiological evaluation was carried out within one hour of dosing. Animals were anesthetized with isoflurane and stimulating needle electrodes were inserted close to the sciatic nerve at the sciatic notch and the tibial nerve near the ankle. Recording electrodes were placed over the foot muscles. Stimuli were applied and responses recorded. Motor and sensory nerve conduction velocities were calculated by measuring the distance between the sciatic notch and ankle sites, and the latency between the M-wave and the H-reflex.

STZ-diabetic rats [4] = test: Neuropathic pain in STZ model (Hargreaves thermal nociception); format: in vivo, Sprague-Dawley rats; details: 10 mg/kg i.p. daily, started 45 days post-STZ
Protocol: In vivo Assay of NAALADase Inhibitors on Neuropathic Pain in STZ Model
Male Sprague-Dawley rats (200–225 g) were rendered diabetic by intravenous administration of streptozotocin (“STZ”, 70 mg/kg in phosphate buffered saline). Diabetic animals were divided into five groups: one group receiving Compound A (10 mg/kg or 1 mg/kg), Compound D (10 mg/kg or 1 mg/kg) or vehicle. Another group of animals (non-STZ treated) served as non-diabetic controls. Drug/vehicle treatment was started in diabetic animals 45 days post-STZ administration. STZ-induced diabetic rats were tested for sensitivity to a heat source as soon as blood glucose levels rose to 320 mg/dl or above (30 days post STZ). The rats were then acclimated to a Hargreaves apparatus and thermal nociception was monitored using an infrared heat source directed into the dorsal surface of the hindpaw, and the time taken for the animal to remove its paw noted to the nearest 0.1 seconds (see Hargreaves et al., J. Biol. Chem. (1988) 263(36):19392–7 for a description of the experimental method). The intensity of the beam source was adjusted such that the mean latency for control animals (non-STZ treated) was approximately 10 seconds. Each animal was tested 8 times and the mean difference score (between mean non-diabetic control latency and mean diabetic latency) are graphically presented in FIGS. 7A and 7B.

BB/W diabetic rats [5] = test: Progression of neuropathic pain in BB/W model (withdrawal latency); format: in vivo; details: 10 mg/kg i.p. daily; vs diabetic vehicle-treated rats, from 4 weeks through six months of treatment, FIG. 11
Excerpt: In vivo Assay of NAALADase Inhibitors on Progression of Neuropathic Pain in BB/W Models
(§4) Male BB/W rats (BRI, Mass) spontaneously develop a cell mediated autoimmune destruction of pancreatic B cells, resulting in onset of insulin-dependent (Type I) diabetes (Awata, Guberski, Endocrinology (1995) 136(12):5731–5). […] This renders them valuable for experimental trials of new compounds for future treatments of this major disorder. In the present study, Compound A and Compound D were examined for their ability to alter the progression of diabetic neuropathy. The rats received daily injection of Compound A or Compound D (10 mg/kg i.p.) or vehicle, starting at the onset of diabetes (hyperglycemia) and up to 6 months thereafter. Another group of non-diabetic rats also receiving vehicle were tested. All animals were continuously monitored for body weight, urine volume, blood sugar and glycated haemoglobin. In the first month of the study, all animals were tested for thermal nociception in a Hargreaves apparatus, weekly. After the first month this was done biweekly and then monthly. The testing consists of directing an infrared heat source onto the dorsal surface of the rat hindpaw and noting the time taken for the animal to remove its paw (see Hargreaves et al., J. Biol. Chem. (1988) 263(36):19392–7 for a description of the experimental method). […]

BB/W diabetic rats [6] = test: Nerve conduction velocity in BB/W model; format: in vivo; details: 10 mg/kg daily; vs diabetic vehicle controls, from 8 weeks to six months, FIG. 12
Excerpt: as §4, with “monthly.” for “monthly. The testing consists of directing an infrared heat source onto the dorsal surface of the rat hindpaw and noting the time taken for the animal to remove its paw (see Hargreaves et al., J. Biol. Chem. (1988) 263(36):19392–7 for a description of the experimental method).”
Nerve conduction velocity was also measured every two weeks through the first eight weeks of treatment and every month thereafter through to the six months of treatment (see De Koning et al., Peptides, Vol. 8, No. 3, pp. 415–22 (1987) for a description of the experimental method). […]

[7] = test system: transgenic HD mice (N171-82Q); test: Huntington's disease transgenic mouse model: survival; format: in vivo
Protocol: The effects of Compound B and vehicle on the survival of transgenic HD mice (N171-82Q) were evaluated. Thirteen mice (six male and seven female) were assigned to the Compound B treatment group, and fourteen mice (six male and eight female) were assigned to the vehicle treatment group. Treatment was continued until all the mice died.

[8] = test system: rats with unilaterally transected optic nerve; test: Optic nerve transection (optic nerve fiber counting); format: in vivo, Rattus norvegicus; details: for FIBER NUMBER: 10 mg/kg daily intraperitoneal
Protocol: (§5) All experiments complied with the Association for Research in Vision and Ophthalmology Statement for the Use of Animals in Ophthalmic and Vision Research. 82 male Brown Norway rats (Rattus norvegicus), each weighing approximately 250 gm, were treated using procedures approved by the Animal Care Committee of the Johns Hopkins University School of Medicine. The rats were housed with a 12 hour light/12 hour dark cycle and fed ad libitum.
OPTIC NERVE TRANSECTION: The optic nerve was transected unilaterally in 26 rats under intraperitoneal pentobarbital anesthesia. The conjunctiva was opened with scissors and the optic nerve exposed by traction on extraocular muscles. The transection was performed with microscissors 5 mm posterior to the globe, with specific attention to avoidance of injury to major ocular blood vessels. Immediately after transection, the retina was examined ophthalmoscopically to assure that the retinal arterial blood supply was not disrupted. The conjunctiva was closed with absorbable suture and the eye dressed with antibiotic ointment. Beginning on the day of transection, the rats were treated daily with intraperitoneal injections of either a vehicle (9 rats with 50 mM HEPES-buffered saline) or a NAALADase inhibitor (8 rats with 10 mg/kg of Compound A and 9 rats with 10 mg/kg of Compound B). 5 saline treated rats, 3 Compound A treated rats, and 4 Compound B treated rats were sacrificed at 2 weeks, and the remaining rats at 4 weeks, after transection.
(§6) OPTIC NERVE COUNTING: The rats were sacrificed by exsanguination under deep pentobarbital anesthesia. They were perfused through the heart with 2% paraformaldehyde/2% glutaraldehyde in 0.1 M phosphate buffer, pH 7.2, and the eyes with attached optic nerves were removed. A cross-section of the optic nerve from both experimental (glaucoma or transection) and control eyes was removed 1.5 mm posterior to the globe, 1 mm in thickness, and post-fixed in 2% osmium tetroxide in buffer. These were processed into epoxy resin, sectioned at 1 micron and stained with toluidine blue.
(§7) The area of the optic nerve cross-section was measured by outlining its outer border at 10× magnification on an image analysis system (Universal Imaging Corp., Westchester, Pa.) with Synsys digital camera and Metamorph software. Three area measurements were taken and the mean value was determined. To measure the density and fiber diameter distributions, images were captured with a 100× phase contrast objective from 10 different areas of each nerve. These were edited to eliminate non-neural objects and the size of each axon internal to the myelin sheath (its minimum diameter) and the density of axons/square mm were calculated for each image and nerve. The mean density was multiplied by total nerve area to yield fiber number for each nerve. The total fiber number in glaucoma or transection nerves was compared to the normal, fellow eye of each rat to yield a percent loss value. The number of axons counted among the 10 images was an approximately 20% sample of the 80–90,000 axons in normal rat nerves. The person measuring axon number was masked to the protocol conducted on the nerves.

[9] = test system: transgenic HD mice of the N171-82Q strain; test: Huntington's disease transgenic mouse model: rotarod and locomotion; format: in vivo
Protocol: Neuroprotective Effect of NAALADase Inhibitors in Transgenic Mouse Model of Huntington's Disease Behavioral Testing (Rotarod) Transgenic HD mice of the […]-[…] strain and non-transgenic littermates were treated with NAALADase inhibitor Compound B (30 mg/kg) or a vehicle from 10 weeks of age. The mice were placed on a rotating rod (“rotarod”). The length of time at which the mouse fell off the rotarod was recorded as a measure of motor coordination. […] The treatment with Compound B had no effect on the rotarod performance of normal non-HD mice. The total distance traveled by the mice was also recorded as a measure of overall locomotion.

[10] = test system: rats with unilateral elevation of intraocular pressure; test: Experimental rat glaucoma (IOP elevation, optic nerve fiber counting); format: in vivo; details: for FIBER NUMBER: 10 mg/kg daily intraperitoneal; for PERCENT DIFFERENCE in fiber number between glaucoma and normal eye: positive value indicates fewer fibers in the glaucoma eye
Protocol: Protective Effect of NAALADase Inhibitors in Experimental Rat Glaucoma
as §5
EXPERIMENTAL GLAUCOMA: Unilateral elevation of intraocular pressure (“IOP”) was produced in 56 rats by microinjection of hypertonic saline into episcleral veins, following procedures described in Morrison, J. et al., IOVS (March 1998) 39:526–531. Beginning on the day of IOP elevation, the rats were treated daily with intraperitoneal injections of either a vehicle (23 rats with 50 mM HEPES-buffered saline) or a NAALADase inhibitor (11 rats with 10 mg/kg of Compound A and 22 rats with 10 mg/kg of Compound B). 11 saline treated rats, 11 Compound A treated rats and 11 Compound B treated rats were sacrificed at 8 weeks, and the remaining rats at 12 weeks, after initial IOP elevation.
as §6, §7

[11] = 2 weeks survival after transection
[12] = 4 weeks survival after transection

Compound: O=C(O)CCC(CCS)C(=O)O (stereo not drawn) [Compound D, 2-(2-sulfanylethyl)pentanedioic acid]
- treatment time at which increase of motor and sensory nerve conduction velocities was significant (STZ-diabetic rats [1]; 1 mg/kg dose): at the earlier time periods
- motor and sensory nerve conduction velocities (STZ-diabetic rats [1]; either dose (10 mg/kg or 1 mg/kg), vs diabetic controls, FIGS. 10A and 10B): increased both motor and sensory nerve conduction velocities
- neuropathic hyperalgesia (thermal response latency) (STZ diabetic rats [2]; daily p.o., treatment from 5 weeks post STZ, within two weeks of treatment, FIG. 22): reversed towards normal
- neuropathic pain abnormalities (STZ diabetic rats [2]; lower doses (1 and 3 mg/kg) initiated after 7 weeks of STZ treatment, FIG. 25): Significant reduction in pain abnormalities
- motor nerve conduction velocity (STZ diabetic rats [3]; daily p.o., within 8 weeks of dosing, persisted through 12 weeks, FIG. 23): reversed the motor nerve conduction velocity towards normal
- motor nerve conduction (STZ diabetic rats [3]; lower doses (1 and 3 mg/kg), even 8 weeks after dosing, FIG. 27): remained unimproved
- sensory nerve conduction (STZ diabetic rats [3]; lower doses (1 and 3 mg/kg), within 4 weeks of treatment, FIG. 26): significantly improved towards normal
- sensory and motor nerve conduction velocity deficits (STZ diabetic rats [3]; untreated until 60 days after STZ treatment, external CRO, FIGS. 28 and 29): Partial reversal of both deficits
- hyperalgesic response (withdrawal latency difference score) (STZ-diabetic rats [4]): completely reversed
- withdrawal latency (BB/W diabetic rats [5]): longer withdrawal latencies
- nerve conduction velocity (BB/W diabetic rats [6]): significantly less severe nerve conduction deficits

Compound: O=C(O)CCC(CCCS)C(=O)O (stereo not drawn) [Compound B, 2-(3-sulfanylpropyl)pentanedioic acid]
- survival time ([7]; female transgenic HD mice, vs vehicle, p-value=0.03, FIG. 37): significantly prolonged survival time
- median survival time ([7]; transgenic HD mice, all, vehicle 158.5 days, p-value=0.07, FIG. 35): 184 days
- remaining axons relative to the saline-treated rats ([8]; 2 weeks after transection): twice
- PERCENT DIFFERENCE in fiber number [8, 11]: 75.3 ± 14.8%
- FIBER NUMBER [8, 11]: 19,550 ± 11,383
- PERCENT DIFFERENCE in fiber number [8, 12]: 93.4 ± 6.2%
- FIBER NUMBER [8, 12]: 5,162 ± 5,017
- rotarod performance ([9]; normal non-HD mice, 30 mg/kg): no effect
- rotarod performance (time on rotarod) ([9]; transgenic HD mice, 30 mg/kg from 10 weeks of age, vs vehicle, FIG. 33): stayed longer on the rotarod
- FIBER NUMBER ([10]; 8 week group): 80785 ± 2121
- PERCENT DIFFERENCE in fiber number between glaucoma and normal eye ([10]; 8 week group): −0.82 ± 2.97%
- FIBER NUMBER ([10]; 12 week group): 90504 ± 1718
- PERCENT DIFFERENCE in fiber number between glaucoma and normal eye ([10]; 12 week group): −3.21 ± 2.86%
